This note sets out measurements from patent publication US20110294728A1, “Antiviral Polypeptides” (priority 2008, published 2011).

Read-outs that look alike come from different tables or passages of the source. Where no end group is shown, it is not given here.

As a reminder, the IC50 is the concentration needed to halve the response being measured. The EC50 is the concentration giving half of the maximal effect. By Ki is commonly meant a measure of affinity in units of concentration, obtained from inhibition or displacement. Read a high Ki as a looser hold on the target. One may read the half-life as how long it takes for the measured level to halve.

One data set relates to HIV-1 strain 1650. The settings on record: peptide with Pep-1 or Pep-3 at ratio 20/1, combinations with Pep-3.
A further data set has as its system HIV-1-LAI strain. The protocol:
The anti-HIV activities of the peptides were assayed according to the methods described in Roisin et al. (2004). Phytohemagglutinin-P(PHA-P)-activated peripheral blood mononuclear cells (PBMC) treated by increasing concentrations of peptide (from 100 to 0.1 nM), one hour later, were infected with hundred 50% tissue culture infectious doses (TCID50) per 100,000 cells of the HIV-1-LAI strain (Barre-Sinoussi et al., 1983). This virus was amplified in vitro on PHA-P-activated PBMC. Viral stock was titrated using PHA-P-activated PBMC, and 50% TCID50 were calculated using Kärber's formula (Kärber, 1931). Samples were maintained throughout the culture, and cell supernatants were collected at day 7 post-infection and stored at −20° C. Viral replication was measured by quantifying reverse transcriptase (RT) activity in cell culture supernatants. In parallel, cytotoxicity of the compounds was evaluated in uninfected PHA-P-activated PBMC by colorimetric 3-(4-5 dimethylthiazol-2-yl)2,5diphenyl tetrazolium bromite (MTT) assay on day 7 (as described in Mossmann, 1983). Experiments were performed in triplicate and repeated with another blood donor. Data analyses were performed using SofiMax® Pro 4.6 microcomputer software: percent of inhibition of RT activity or of cell viability were plotted vs concentration and fitted with quadratic curves; 50% effective doses (ED50) and cytotoxic doses (CD50) were calculated.
In order to avoid any limitation due to the poor ability of peptides to cross cellular membranes, they were associated to the peptide-based nanoparticle delivery system Pep-1 (SEQ ID NO: 29), at a 1/10 molar ratio.

A further data set concerns the target T1, HIV-1 RT (Human immunodeficiency virus type 1 group M subtype B, UniProt P03366).
T1 construct: The heterodimeric p66/p51 RT was eluted with an imidazole gradient; p66 and p51 derived from p66 by proteolytic cleavage of the C-terminal RNAse H domain; made in house; host or cells: E. coli (M15 for the His-tagged subunits)
Briefly: biochemical. Put shortly:
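HIV-1 RT (20 nM, as added) was preincubated 23 h with increasing peptide concentrations, then reaction buffer was added (Tris pH 8.0, KCl, MgCl2, DTT, 0.15 µM poly(rA)-(dT)15, 15 µM dTTP plus 3H-dTTP, as added) for 30 min at 37 °C. Incorporated 3H was measured after TCA precipitation and filtration by scintillation counting; mean of three experiments.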

Another data set has as its system HIV-1 strain 2165. The settings on record: peptide with Pep-1 or Pep-3 at ratio 20/1, combinations with Pep-3.
Another data set addresses IN/DNA complexes (Human immunodeficiency virus type 1 group M subtype B, UniProt P04585). In words: DNA-binding of integrase, fluorescence anisotropy. The data set is classed as biochemical, HIV-1. The protocol: The simultaneous measurement of integrase-DNA interaction and subsequent 3′-processing activity by steady-state fluorescence anisotropy was performed as described in Guiot et al. (2006). […] After the initial DNA-binding step (performed at 25° C.), the 3′-processing activity was measured at 37° C. by fixed-time experiments: The reaction was stopped at varying times by adding SDS (0.25% final) which disrupts all IN-DNA complexes in the sample. The IN-mediated cleavage of the terminal GT dinucleotide (labeled by fluorescein on the 3′-end) leads to a significant decrease of r as compared to the r value corresponding to the fluorescein-labeled unprocessed DNA substrate. The fraction of released dinucleotide is calculated by using Eq. (1): […]
For orientation: In fluorescence polarisation assays a small probe gives low polarisation when free and higher when bound to something large.

Another data set can be described thus: in vivo. The note with it: for half-life: female, BALB/c, mouse, in vivo, iv, 10 μg; for tissues with peptide accumulation: formulated with CADY-2c/CADY-1S1, after 24 hr; for time of optimal distribution: formulated with CADY-2c/CADY-1S1, intravenous; for distribution of naked peptide: intravenous, after 15 min. As for the experimental part: In order to evaluate the potency of the peptides p27 (SEQ ID NO: 25) and p16 (SEQ ID NO: 19) in vivo, it was analyzed their ability to be systemically administrated by intravenous injection in mice (BALB/c; 6 to 8 week-old female mice). Peptides were either radio-labeled at the N-terminal amino acid or fluorescently labeled with Alexa® Fluo700 probe. […] Particles were injected intravenously (100 μl) and kinetic of peptide distribution were followed by fluorescence live imaging. 24 hr after injection, the level of peptides in the different tissues were quantified by fluorescence and radioactivity.

The test system of another data set is HIV-1 strain NDK. The settings on record: peptide with Pep-1 or Pep-3 at ratio 20/1, combinations with Pep-3.
The subject of another data set is HIV-1 strain 2914. The settings on record: peptide with Pep-1 or Pep-3 at ratio 20/1, combinations with Pep-3.
A further data set has as its system HIV-1 strain RF. The note with it: strain RF (RP in Table 5); peptide with Pep-1 or Pep-3 at ratio 20/1; combinations with Pep-3.
Where [1] appears, read: read-out: EC50 HIV-1 lai, Table 10.

GTKWLTEVWPL [Peptide P16]: the IC50 in the data set on HIV-1 strain 1650 was determined as 7.5 nM; with HIV-1 strain 2165, 2.7 nM; in the data set with HIV-1 strain NDK, 2.9 nM; in the data set on HIV-1 strain 2914, 1.7 nM; in the data set with HIV-1 strain RF it was 10.9 nM. For the same sequence, the EC50 in the data set on HIV-1-LAI strain (setting [1]) stood at 5.9 nM; at IN/DNA complexes it was 8000 nM. This sequence also gave a Ki on HIV-1 RT of 14400 nM. The “reduction of efficiency (higher Ki) relative to PAW” value at HIV-1 RT (relative to PAW) stood at 20 fold. The sequence also gave a half-life in “in vivo” of less than 1 h. The “tissues with peptide accumulation” value in the data set “in vivo” is given as “liver, brain, stomach, kidney, lung”. For the same sequence, the “time of optimal distribution” value in the data set “in vivo” is 5 h. The “distribution of naked peptide” value in “in vivo” was “accumulated mainly in the bladder”.
Consider GTKWLTEWIPLTAE [Peptide P27], for which the IC50 with HIV-1 strain 1650 was 0.8 nM; in the data set on HIV-1-LAI strain (read-out: IC50, antiviral activity, text b123, peptide with Pep-1), less than 0.32 nM; in the data set on HIV-1 strain 2165, 2.6 nM; with HIV-1 strain NDK, 0.3 nM; in the data set on HIV-1 strain 2914, 0.2 nM; with HIV-1 strain RF, 1.5 nM. Also, the EC50 with HIV-1-LAI strain (PBMC, HIV-1 LAI, day 7, /Pep-1 = associated to Pep-1 at 1/10 molar ratio) is greater than 1000 nM; with HIV-1-LAI strain (setting [1]), 0.21 nM; at IN/DNA complexes it was greater than 100000 nM. In addition, at HIV-1 RT, the Ki came out at 50 ± 0.01 nM. For the same sequence, the “increase of efficiency relative to PAW” value on HIV-1 RT (relative to PAW) came to 14 fold. For the same sequence, in the data set “in vivo”, the half-life was less than 1 h. Further, the “tissues with peptide accumulation” value in the data set “in vivo” was “liver, brain, stomach, kidney, lung”. Also, the “time of optimal distribution” value in the data set “in vivo” was found to be 5 h. Moreover, in the data set “in vivo”, the “distribution of naked peptide” value is given as “accumulated mainly in the bladder”.
